Calls of active or inactive are those of the source. The calls are words filed in the database; no cut-off is given here. Peptide text beside a SMILES is read from it.
What was measured:
Rattus norvegicus [1] = species on record: Rattus norvegicus; experiment: Selectivity index, ratio of IC50 for rat alpha6/alpha3beta4 E34M mutant nAChR expressed in Stage V-VI Xenopus laevis oocytes to IC50 for rat alpha6/alpha3beta4 nAChR expressed in Stage V-VI Xenopus laevis Oocytes by electrophysiological recording; format: cell-based
[2] = target: Nicotinic acetylcholine receptor alpha9/alpha10 (Rattus norvegicus, UniProt P43144+Q9JLB5); experiment: Inhibition of rat alpha9/alpha10 nAChR expressed in Stage V-VI Xenopus laevis Oocytes assessed as inhibition of acetylcholine-induced current in presence of acetylcholine by electrophysiological recording; format: cell-based, Oocyte
Nicotinic acetylcholine receptor alpha9/alpha10, sequence (P43144 whole entry): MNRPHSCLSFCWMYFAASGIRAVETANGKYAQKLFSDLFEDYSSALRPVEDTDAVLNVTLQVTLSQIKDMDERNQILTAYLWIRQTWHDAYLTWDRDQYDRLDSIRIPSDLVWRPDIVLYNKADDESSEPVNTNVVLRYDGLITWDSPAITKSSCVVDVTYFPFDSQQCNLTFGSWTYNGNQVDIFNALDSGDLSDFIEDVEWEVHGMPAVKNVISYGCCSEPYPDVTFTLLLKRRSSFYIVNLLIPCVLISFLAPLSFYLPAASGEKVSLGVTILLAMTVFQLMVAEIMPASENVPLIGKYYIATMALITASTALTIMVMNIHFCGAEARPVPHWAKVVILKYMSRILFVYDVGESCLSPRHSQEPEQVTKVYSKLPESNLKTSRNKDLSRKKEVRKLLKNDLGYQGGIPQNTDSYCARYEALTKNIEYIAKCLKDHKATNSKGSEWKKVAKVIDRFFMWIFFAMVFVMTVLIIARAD
Nicotinic acetylcholine receptor alpha9/alpha10, sequence (Q9JLB5 whole entry): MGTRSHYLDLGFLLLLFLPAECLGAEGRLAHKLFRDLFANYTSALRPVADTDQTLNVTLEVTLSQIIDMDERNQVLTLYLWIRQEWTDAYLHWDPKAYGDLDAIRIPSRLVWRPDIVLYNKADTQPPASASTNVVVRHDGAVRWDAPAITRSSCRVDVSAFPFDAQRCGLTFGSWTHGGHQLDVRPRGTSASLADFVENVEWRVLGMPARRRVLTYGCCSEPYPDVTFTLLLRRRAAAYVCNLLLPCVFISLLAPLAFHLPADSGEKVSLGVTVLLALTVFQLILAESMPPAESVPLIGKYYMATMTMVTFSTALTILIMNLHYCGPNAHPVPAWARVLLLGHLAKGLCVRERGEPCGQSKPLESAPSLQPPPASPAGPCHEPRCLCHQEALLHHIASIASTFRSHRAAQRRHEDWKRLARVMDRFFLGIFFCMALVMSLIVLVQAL

Oocyte [3] = experiment: (§1) Inhibition of rat alpha6/alpha3 D152A mutant beta4 nAChR expressed in Stage V-VI Xenopus laevis Oocytes assessed as inhibition of acetylcholine-induced current by measuring recovery time at 10 uM preincubated with compound for 5 mins followed by washout in presence of acetylcholine by electrophysiological recording; format: cell-based
[4] = Inhibition of rat alpha6/alpha3beta4 E34M mutant nAChR expressed in Stage V-VI Xenopus laevis Oocytes assessed as inhibition of acetylcholine-induced current in presence of acetylcholine by electrophysiological recording; format: cell-based; settings: Oocyte
[5] = target: Neuronal acetylcholine receptor; alpha4/beta2 (Rattus norvegicus) (UniProt P09483+P12390); experiment: Inhibition of rat alpha4/beta2 nAChR expressed in Stage V-VI Xenopus laevis Oocytes assessed as inhibition of acetylcholine-induced current at 10 uM in presence of acetylcholine by electrophysiological recording relative to control; format: cell-based; settings: Oocyte
Rattus norvegicus [6] = species on record: Rattus norvegicus; experiment: Selectivity index, ratio of IC50 for rat alpha6/alpha3beta4 1166S mutant nAChR expressed in Stage V-VI Xenopus laevis oocytes to IC50 for rat alpha6/alpha3beta4 nAChR expressed in Stage V-VI Xenopus laevis Oocytes by electrophysiological recording; format: cell-based
Oocyte [7] = experiment: as §1, with “T59K” for “D152A”; format: cell-based
Oocyte [8] = experiment: Inhibition of rat alpha6/alpha3 D152A mutant beta4 nAChR expressed in Stage V-VI Xenopus laevis Oocytes assessed as acetylcholine-induced current response at 100 nM in presence of 100 uM acetylcholine by electrophysiological recording relative to control; format: cell-based; design: scale not given: the % may be the effect or the level left
[9] = target: Neuronal acetylcholine receptor subunit alpha-7 (Rattus norvegicus, UniProt Q05941); experiment: Inhibition of rat alpha7 nAChR expressed in Stage V-VI Xenopus laevis Oocytes assessed as inhibition of acetylcholine-induced current in presence of acetylcholine by electrophysiological recording; format: cell-based, Oocyte
Neuronal acetylcholine receptor subunit alpha-7, sequence (Q05941 whole entry): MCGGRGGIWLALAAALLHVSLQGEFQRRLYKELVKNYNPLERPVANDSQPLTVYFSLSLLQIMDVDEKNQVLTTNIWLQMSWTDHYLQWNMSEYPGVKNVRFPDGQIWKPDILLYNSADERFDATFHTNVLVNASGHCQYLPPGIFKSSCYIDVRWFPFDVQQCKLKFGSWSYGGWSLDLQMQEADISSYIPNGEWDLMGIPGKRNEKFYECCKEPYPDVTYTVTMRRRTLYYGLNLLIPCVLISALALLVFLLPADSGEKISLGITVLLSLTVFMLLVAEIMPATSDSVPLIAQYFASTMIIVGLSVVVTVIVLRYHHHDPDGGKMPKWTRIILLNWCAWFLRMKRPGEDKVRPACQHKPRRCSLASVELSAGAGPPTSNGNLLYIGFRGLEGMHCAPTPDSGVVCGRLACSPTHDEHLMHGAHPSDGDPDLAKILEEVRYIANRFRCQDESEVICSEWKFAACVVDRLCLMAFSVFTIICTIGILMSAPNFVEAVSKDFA

[10] = target: Nicotinic acetylcholine receptor alpha6/alpha3/beta2/beta3 (Rattus norvegicus, UniProt P04757+P12390+P12391+P43143); experiment: Inhibition of rat alpha6/alpha3beta2beta3 nAChR expressed in Stage V-VI Xenopus laevis Oocytes assessed as inhibition of acetylcholine-induced current in presence of acetylcholine by electrophysiological recording; format: cell-based, Oocyte
Nicotinic acetylcholine receptor alpha6/alpha3/beta2/beta3, sequence (P04757 whole entry): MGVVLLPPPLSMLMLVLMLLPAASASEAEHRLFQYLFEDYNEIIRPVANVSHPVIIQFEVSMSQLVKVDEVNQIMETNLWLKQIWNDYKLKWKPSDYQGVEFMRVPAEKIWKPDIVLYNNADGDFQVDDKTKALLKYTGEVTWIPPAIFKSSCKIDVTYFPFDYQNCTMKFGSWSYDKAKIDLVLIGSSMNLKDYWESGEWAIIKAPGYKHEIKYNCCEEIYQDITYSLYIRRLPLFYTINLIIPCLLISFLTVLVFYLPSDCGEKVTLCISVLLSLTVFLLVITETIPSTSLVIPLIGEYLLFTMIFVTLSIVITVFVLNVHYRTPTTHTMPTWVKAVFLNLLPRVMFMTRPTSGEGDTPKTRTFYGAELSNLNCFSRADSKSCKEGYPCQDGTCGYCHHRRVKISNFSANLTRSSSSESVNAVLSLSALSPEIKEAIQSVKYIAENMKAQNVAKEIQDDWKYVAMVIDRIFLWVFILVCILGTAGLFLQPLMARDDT
Nicotinic acetylcholine receptor alpha6/alpha3/beta2/beta3, sequence (P12390 whole entry): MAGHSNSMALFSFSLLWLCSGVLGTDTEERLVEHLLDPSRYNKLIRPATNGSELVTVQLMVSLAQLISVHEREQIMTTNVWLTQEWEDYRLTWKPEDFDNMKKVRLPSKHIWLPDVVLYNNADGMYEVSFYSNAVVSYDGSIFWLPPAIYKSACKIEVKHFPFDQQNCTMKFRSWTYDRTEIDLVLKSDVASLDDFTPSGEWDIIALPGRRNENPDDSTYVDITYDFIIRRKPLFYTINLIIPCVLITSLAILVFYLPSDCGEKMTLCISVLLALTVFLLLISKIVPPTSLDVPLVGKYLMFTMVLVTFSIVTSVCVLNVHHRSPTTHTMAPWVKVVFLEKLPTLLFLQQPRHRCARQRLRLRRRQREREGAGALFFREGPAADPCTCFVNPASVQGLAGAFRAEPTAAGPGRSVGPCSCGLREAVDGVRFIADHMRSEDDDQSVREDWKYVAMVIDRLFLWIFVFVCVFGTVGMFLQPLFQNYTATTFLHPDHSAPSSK
Nicotinic acetylcholine receptor alpha6/alpha3/beta2/beta3, sequence (P12391 whole entry): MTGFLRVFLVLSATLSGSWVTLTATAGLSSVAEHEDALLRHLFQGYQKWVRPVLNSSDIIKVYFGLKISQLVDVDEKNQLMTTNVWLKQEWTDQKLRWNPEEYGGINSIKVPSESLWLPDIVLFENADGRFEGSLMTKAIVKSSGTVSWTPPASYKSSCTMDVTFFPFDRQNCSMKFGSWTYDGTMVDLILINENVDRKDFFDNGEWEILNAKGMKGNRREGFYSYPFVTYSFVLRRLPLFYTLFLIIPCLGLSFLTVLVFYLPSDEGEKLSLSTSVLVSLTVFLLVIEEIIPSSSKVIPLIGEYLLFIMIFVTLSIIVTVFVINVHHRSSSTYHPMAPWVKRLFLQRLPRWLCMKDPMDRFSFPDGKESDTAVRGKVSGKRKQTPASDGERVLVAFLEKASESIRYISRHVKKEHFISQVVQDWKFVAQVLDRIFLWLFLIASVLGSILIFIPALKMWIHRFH
Nicotinic acetylcholine receptor alpha6/alpha3/beta2/beta3, sequence (P43143 whole entry): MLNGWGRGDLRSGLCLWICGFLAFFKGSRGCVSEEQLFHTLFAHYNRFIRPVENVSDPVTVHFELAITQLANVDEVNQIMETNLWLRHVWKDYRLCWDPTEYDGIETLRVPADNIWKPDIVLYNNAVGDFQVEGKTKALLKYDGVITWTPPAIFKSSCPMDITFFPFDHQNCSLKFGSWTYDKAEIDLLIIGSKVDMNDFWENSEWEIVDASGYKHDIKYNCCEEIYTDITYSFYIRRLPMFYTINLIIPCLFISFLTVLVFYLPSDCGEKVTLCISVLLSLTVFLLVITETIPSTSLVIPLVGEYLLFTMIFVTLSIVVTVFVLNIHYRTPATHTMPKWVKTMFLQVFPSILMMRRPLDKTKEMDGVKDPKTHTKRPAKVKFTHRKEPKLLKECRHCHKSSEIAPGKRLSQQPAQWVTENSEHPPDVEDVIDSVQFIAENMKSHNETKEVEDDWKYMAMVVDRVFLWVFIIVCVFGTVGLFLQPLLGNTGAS

[11] = target: Nicotinic acetylcholine receptor alpha6/alpha3/beta2/beta3 (Rattus norvegicus) (UniProt P04757+P12390+P12391+P43143); experiment: Inhibition of rat alpha6/alpha3beta2beta3 nAChR expressed in Stage V-VI Xenopus laevis Oocytes assessed as inhibition of acetylcholine-induced current at 10 uM in presence of acetylcholine by electrophysiological recording; format: cell-based; settings: Oocyte
[12] = target: T1, Neuronal acetylcholine receptor; alpha3/beta4 (Rattus norvegicus) (UniProt P04757+P12392); experiment: Inhibition of rat alpha3/beta4 nAChR expressed in Stage V-VI Xenopus laevis Oocytes assessed as inhibition of acetylcholine-induced current at 10 uM in presence of acetylcholine by electrophysiological recording relative to control; format: cell-based; settings: Oocyte
[13] = target: Nicotinic acetylcholine receptor alpha9/alpha10 (Rattus norvegicus) (UniProt P43144+Q9JLB5); experiment: Inhibition of rat alpha9/alpha10 nAChR expressed in Stage V-VI Xenopus laevis Oocytes assessed as inhibition of acetylcholine-induced current at 10 uM in presence of acetylcholine by electrophysiological recording relative to control; format: cell-based; settings: Oocyte
[14] = target: T1, Neuronal acetylcholine receptor; alpha3/beta4 (Rattus norvegicus); experiment: Inhibition of rat alpha3beta4 nAChR expressed in Stage V-VI Xenopus laevis Oocytes assessed as inhibition of acetylcholine-induced current at 10 uM in presence of acetylcholine by electrophysiological recording; format: cell-based; settings: Oocyte
Oocyte [15] = experiment: Inhibition of rat alpha6/alpha3 E195A mutant beta4 nAChR expressed in Stage V-VI Xenopus laevis Oocytes assessed as acetylcholine-induced current response at 100 nM in presence of 100 uM acetylcholine by electrophysiological recording relative to control; format: cell-based
[16] = target: Nicotinic acetylcholine receptor alpha1/beta1/epsilon/delta (Mus musculus, UniProt P02716+P04756+P09690+P20782); experiment: Inhibition of mouse alpha1/beta1deltaepsilon nAChR expressed in Stage V-VI Xenopus laevis Oocytes assessed as inhibition of acetylcholine-induced current in presence of acetylcholine by electrophysiological recording; format: cell-based, Oocyte
[17] = Inhibition of rat alpha6/alpha3beta4 D161A mutant nAChR expressed in Stage V-VI Xenopus laevis Oocytes assessed as inhibition of acetylcholine-induced current in presence of acetylcholine by electrophysiological recording; format: cell-based; settings: Oocyte
[18] = target: Neuronal acetylcholine receptor; alpha2/beta4 (Rattus norvegicus, UniProt P12389+P12392); experiment: Inhibition of rat alpha2/beta4 nAChR expressed in Stage V-VI Xenopus laevis Oocytes assessed as inhibition of acetylcholine-induced current in presence of acetylcholine by electrophysiological recording; format: cell-based, Oocyte
[19] = target: Neuronal acetylcholine receptor; alpha3/beta2 (Rattus norvegicus) (UniProt P04757+P12390); experiment: Inhibition of rat alpha3/beta2 nAChR expressed in Stage V-VI Xenopus laevis Oocytes assessed as inhibition of acetylcholine-induced current at 10 uM in presence of acetylcholine by electrophysiological recording relative to control; format: cell-based; settings: Oocyte
Rattus norvegicus [20] = species on record: Rattus norvegicus; experiment: Selectivity index, ratio of IC50 for rat alpha6/alpha3 D152A mutant beta4 nAChR expressed in Stage V-VI Xenopus laevis oocytes to IC50 for rat alpha6/alpha3beta4 nAChR expressed in Stage V-VI Xenopus laevis Oocytes by electrophysiological recording; format: cell-based
Oocyte [21] = experiment: Inhibition of rat alpha6/alpha3 D152A mutant beta4 nAChR expressed in Stage V-VI Xenopus laevis Oocytes assessed as acetylcholine-induced current response at 1 uM in presence of 100 uM acetylcholine by electrophysiological recording relative to control; format: cell-based; design: scale not given: the % may be the effect or the level left
Rattus norvegicus [22] = species on record: Rattus norvegicus; experiment: Selectivity index, ratio of IC50 for rat alpha6/alpha3 E195A mutant beta4 nAChR expressed in Stage V-VI Xenopus laevis oocytes to IC50 for rat alpha6/alpha3beta4 nAChR expressed in Stage V-VI Xenopus laevis Oocytes by electrophysiological recording; format: cell-based
[23] = target: Neuronal acetylcholine receptor; alpha4/beta2 (Rattus norvegicus, UniProt P09483+P12390); experiment: Inhibition of rat alpha4/beta2 nAChR expressed in Stage V-VI Xenopus laevis Oocytes assessed as inhibition of acetylcholine-induced current in presence of acetylcholine by electrophysiological recording; format: cell-based, Oocyte
Neuronal acetylcholine receptor; alpha4/beta2, sequence (P09483 whole entry): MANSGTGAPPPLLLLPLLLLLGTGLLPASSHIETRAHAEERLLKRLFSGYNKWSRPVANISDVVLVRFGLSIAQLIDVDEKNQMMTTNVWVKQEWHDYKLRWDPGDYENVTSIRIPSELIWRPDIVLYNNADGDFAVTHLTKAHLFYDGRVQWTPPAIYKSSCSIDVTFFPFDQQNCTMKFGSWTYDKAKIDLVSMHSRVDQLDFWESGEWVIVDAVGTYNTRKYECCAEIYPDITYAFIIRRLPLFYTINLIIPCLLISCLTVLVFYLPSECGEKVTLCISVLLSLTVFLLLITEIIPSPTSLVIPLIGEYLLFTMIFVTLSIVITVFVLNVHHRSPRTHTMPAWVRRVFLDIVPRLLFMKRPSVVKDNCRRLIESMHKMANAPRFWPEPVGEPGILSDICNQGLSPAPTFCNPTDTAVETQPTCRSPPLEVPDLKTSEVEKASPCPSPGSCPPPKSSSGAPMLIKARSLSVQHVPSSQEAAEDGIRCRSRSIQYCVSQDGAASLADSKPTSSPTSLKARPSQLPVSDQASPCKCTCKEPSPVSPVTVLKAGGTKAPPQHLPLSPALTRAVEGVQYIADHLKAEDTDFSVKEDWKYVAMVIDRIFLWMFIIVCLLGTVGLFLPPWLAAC
Neuronal acetylcholine receptor; alpha4/beta2, sequence (P12390 whole entry): as the sequence (P12390 whole entry) above

[24] = target: Nicotinic acetylcholine receptor alpha6/alpha3/beta4 (Rattus norvegicus) (UniProt P04757+P12392+P43143); experiment: Inhibition of rat alpha6/alpha3beta4 nAChR expressed in Stage V-VI Xenopus laevis Oocytes assessed as inhibition of acetylcholine-induced current at 10 uM in presence of acetylcholine by electrophysiological recording; format: cell-based; settings: Oocyte
Rattus norvegicus [25] = species on record: Rattus norvegicus; experiment: Selectivity index, ratio of IC50 for rat alpha6/alpha3beta4 D161A mutant nAChR expressed in Stage V-VI Xenopus laevis oocytes to IC50 for rat alpha6/alpha3beta4 nAChR expressed in Stage V-VI Xenopus laevis Oocytes by electrophysiological recording; format: cell-based

SMILES: CC(C)[C@H](NC(=O)[C@@H]1CCCN1C(=O)[C@H](CC(N)=O)NC(=O)[C@H](C)NC(=O)[C@H](CS)NC(=O)[C@H](CS)NC(=O)[C@@H](N)CCCNC(=N)N)C(=O)N[C@@H](CS)C(=O)N[C@@H](CC(N)=O)C(=O)NCC(=O)N[C@@H](CCCCN)C(=O)N[C@@H](Cc1cnc[nH]1)C(=O)N[C@@H](CS)C(N)=O (H-RCCANPVCNGKHC-NH2)
- Ratio IC50 (Rattus norvegicus [1]): 0.97
- IC50 [2]: > 10 µM
- TIME (Oocyte [3]): 0.0667 h
- IC50 [4]: 0.0185 µM
- inhibition [5]: < 50%
- Ratio IC50 (Rattus norvegicus [6]): 2.7
- TIME (Oocyte [7]): 0.0333 h
- Activity (Oocyte [8]): 22.6%
- IC50 [9]: > 10 µM
- IC50 [10]: > 10 µM
- inhibition [11]: inactive
- inhibition [12]: < 50%
- inhibition [13]: < 50%
- inhibition [14]: inactive
- inhibition (Oocyte [15]): 9.11%
- IC50 [16]: > 10 µM
- IC50 [17]: 0.063 µM
- IC50 [18]: > 10 µM
- inhibition [19]: < 50%
- Ratio IC50 (Rattus norvegicus [20]): 24.7
- Activity (Oocyte [21]): 63.8%
- Ratio IC50 (Rattus norvegicus [22]): 50.5
- IC50 [23]: > 10 µM
- inhibition [24]: Active
- Ratio IC50 (Rattus norvegicus [25]): 3.3
